This note sets out measurements from patent EP4803087A1, “METHOD FOR PRODUCING LIPOSOME COMPOSITION, AND LIPOSOME COMPOSITION” (FUJIFILM Corporation, priority 2023, dated 2025).

Structures can show the parent of a compound that is named as a salt.

One may read the solubility as how much of the substance goes into solution per volume.

Series [1] is described as follows: Dissolution of gemcitabine hydrochloride in the loading tank at production scale (visual confirmation). Details: time after which complete dissolution could not be confirmed: dose or concentration left out as unconfirmed. To be noted: jacket 56°C. The class given is physicochemical. How it is done:
In order to prevent the powder of gemcitabine hydrochloride having high pharmacological activity from being exposed to the operator, the following work was performed in an isolator that could completely isolate the work from the outside. […] In this case, the extension tube was closed by a pinch valve. 1,452 g of water for injection at room temperature was put into the plastic bag to wash the burette, and gemcitabine hydrochloride was dispersed. A tube extended from a sealed tank (hereinafter, a loading tank) made of SUS316L with a temperature control jacket installed outside the isolator and the plastic bag was connected, and the gemcitabine hydrochloride aqueous dispersion liquid was put into the loading tank. A solution consisting of 17.0 g of disodium hydrogen phosphate dihydrate, 2.7 g of sodium dihydrogen phosphate dihydrate, and 1,106.6 g of water for injection was put into the loading tank from the plastic bag to wash out the gemcitabine hydrochloride remaining in the plastic bag, the extension tube, and the like. By cutting the extension tube while pinching and crimping the extension tube, the gemcitabine hydrochloride of the highly pharmaceutically active substance could be safely put into the loading tank without scattering from the isolator or the loading tank. […]

A short description of series [2]: Measurement of saturated solubility of gemcitabine hydrochloride (HPLC, 272 nm). Format: physicochemical. To be noted: 55 °C, aqueous buffer, thermodynamic from solid, phosphate buffer and water. How it is done: 0.95 g of disodium hydrogen phosphate dihydrate, 0.15 g of sodium dihydrogen phosphate dihydrate, and 51.1 g of water were put into a 100 mL plastic container and dissolved to produce a buffer containing no sodium chloride.
3.4 g of gemcitabine hydrochloride was put into 5.8 g of this buffer and 8.1 g of water, and the mixture was stirred at 55°C for 2 hours. 5 mL of this supernatant was collected, and the filtrate obtained by filtration was used as a sample solution.
0.95 g of disodium hydrogen phosphate dihydrate, 0.15 g of sodium dihydrogen phosphate dihydrate, 5.4 g of sodium chloride, and 67.7 g of water were put into a 100 mL plastic container and dissolved to produce a buffer containing sodium chloride.
3.4 g of gemcitabine hydrochloride was put into 7.4 g of this buffer and 8.1 g of water, and the mixture was stirred at 55°C for 2 hours. 5 mL of this supernatant was collected, and the filtrate obtained by filtration was used as a sample solution.
This sample solution was quantified by HPLC at a detection wavelength of 272 nm, and the saturated solubility of 90 mg/mL in the presence of sodium chloride was obtained.

As for `Nc1ccn([C@@H]2O[C@H](CO)[C@@H](O)C2(F)F)c(=O)n1` [gemcitabine hydrochloride, Gemcitabine hydrochloride], in series [1] (Comparative Example 1: sodium chloride present, 200 rpm, downward flow, sodium hydroxide added), the “time after which complete dissolution could not be confirmed” value is over 1 h. Moreover, in series [1] (Example 1: no sodium chloride, 305 g scale, liquid 54°C, 400 rpm, upward flow), the “time after the temperature rise until gemcitabine hydrochloride was completely dissolved” value is given as “about 15 minutes”. The solubility at 2 h in series [2] (in the absence of sodium chloride, stirred at 55°C for 2 hours (imitating Example 1)) turned out to be 156 mg/mL; in series [2] (in the presence of sodium chloride, stirred at 55°C for 2 hours (imitating Comparative Example 1)) it was 90 mg/mL.
